Test results: patent publication US4078049A, “Acetylcholine assay” (Hoffmann-La Roche Inc., priority 1977, dated 1978)

Tested on: antibody in the antiserum of rabbit immunized by the acetylcholine bovine serum albumin immunogen
Assay: Radioimmunoassay specificity: inhibition of binding of acetylcholine-H^3 to the antibody
Protocol: The volume was adjusted to 0.5 ml with phosphate-buffered saline, pH 7.4, which is the optimal pH for the assay. […]. […] After 2 washings with 50% saturated ammonium sulfate, the precipitate was dissolved in 0.5 ml of water. […] The 12 ml washings were all collected in the vial. The radioactivity was then counted with a Beckman liquid scintillation counter. The dilution of the antiserum chosen for further studies was 1:50.

| Structure (SMILES) | IC50 (read-out: concentration producing 50% inhibition of binding of acetylcholine --H^3 to the antibody, antiserum 1:50, incubated 2 hours at 4° C, pH 7.4, eserine present, ammonium sulfate precipitation) | recognition by the antibody (competition with labelled acetylcholine) (antiserum incubated with acetate in the presence of labelled acetylcholine) |
| --- | --- | --- |
| CC(=O)OCC[N+](C)(C)C [Acetylcholine, acetylcholine] | 30 pM |  |
| CC(=O)O [acetate] |  | failed to recognize |
